Assay results published in US8071645B2, “Systems and methods for treating human inflammatory and proliferative diseases and wounds, with fatty acid metabolism inhibitors and/or glycolytic inhibitors” (The Regents of the University of Colorado, priority 2003, dated 2011).

Assays:
HL60 cells [1] = experiment: microscopy images of HL60 cells treated with cerulenin; assay type: cell-based, human; conditions: FIG. 4C
From the text: (§1) In FIG. 4, microscopy images of HL60 and HL60 MDR (“multi-drug resistant”) cells treated with cerulenin (“Treated”) and not treated with cerulenin (“No Stn”) are shown.

HL60 cells [2] = experiment: % death of HL60 cells by flow cytometry; assay type: cell-based, human; conditions: Table 1, 25 ug/mL Cerulenin
Experimental: (§2) Statistical Analysis, Percents, and Geometric Mean Values Percents. Gating is a tool provided by Cell Quest software and allows for the analysis of a certain population of cells. Gating around both the live and dead cell populations gave a percent of the cell numbers that was in each population. After the gates were drawn, a percent value of dead cells was calculated by taking the number of dead cells divided by the number of total cells and multiplying by one hundred.
(§3) This example illustrates an embodiment of the invention, where multi-drug resistant cancer cells were exposed to compositions of the invention. Analysis of the cells was performed using flow cytometry. The flow cytometry experiments were performed as follows. The cells were harvested, counted, and resuspended as described above. […] The cells were incubated with 1 mM DCF-DA for 20 minutes, washed twice in PBS containing 5% fetal calf serum and analyzed using flow cytometry. The mitochondrial membrane potential was assessed using MitoTracker Red (CM-H2XROS, Molecular Probes, Eugene, Oreg.). […] The data was acquired on a Coulter Elite Epics or Excel flow cytometer (Coulter, Hialeah, Fla.) and analyzed with CellQuest software, (Becton Dickinson, San Jose, Calif.). […] Each sample population was classified for cell size (forward scatter) and complexity (side scatter), gated on a population of interest and evaluated using 40,000 cells. […]

B16F1 melanoma cells [3] = experiment: % death of B16F1 cells by flow cytometry; assay type: cell-based
Experimental: as §2
(§4) This example illustrates an embodiment of the invention, where multi-drug resistant cancer cells were exposed to compositions of the invention. Analysis of the cells was performed using flow cytometry. The flow cytometry experiments were performed as follows. The cells were harvested, counted, and resuspended as described above. For DNA staining, the cells were washed and resuspended in ice-cold PBS and fixed by the dropwise addition of 95% ethanol. The cells were then incubated for 30 minutes on ice, washed, and resuspended in PBS containing 1% formaldehyde and 0.01% Tween. The cells were incubated with 50 units of DNAse and washed with PBS containing 5% DNAse. The cells were then incubated with anti DNA Fab (166, kind gift of Dr. Susan Wallace, University of Vermont), then washed and stained with a fluorescein conjugated second step anti-mouse immunoglobulin. The cells were then washed and resuspended in PBS/3% BSA/1% formaldehyde. The cells were stained for intracellular H2O2 using 6-carboxy-2′,7′-dichlorodihydrofluorescein diacetate (DCF-DA, Molecular Probes, Eugene, Oreg.). The cells were incubated with 1 mM DCF-DA for 20 minutes, washed twice in PBS containing 5% fetal calf serum and analyzed using flow cytometry. The mitochondrial membrane potential was assessed using MitoTracker Red (CM-H2XROS, Molecular Probes, Eugene, Oreg.). The cells were resuspended in warm (37° C.) PBS containing a final concentration of 0.5 micromolar of dye. The cells were then incubated for 30 minutes, pelleted, and resuspended in prewarmed medium for analysis. The data was acquired on a Coulter Elite Epics or Excel flow cytometer (Coulter, Hialeah, Fla.) and analyzed with CellQuest software, (Becton Dickinson, San Jose, Calif.). […] Each sample population was classified for cell size (forward scatter) and complexity (side scatter), gated on a population of interest and evaluated using 40,000 cells. Each figure describing flow cytometric data represents one of at least four replicate experiments.
All cell lines in this example were cultured in RPMI 1640 culture medium. The medium was supplemented with 5% fetal bovine serum (“FBS”), 2 mM L-Glutamine, 500 units/mL pennicillin/500 micrograms/mL of streptomycin, 10 mM HEPES Buffer, 10^−5 M 2-mercaptoethanol (“2-ME”), 1 mM MEM Sodium Pyruvate, and 0.04 micrograms/mL of Gentamicin (All reagents from Gibco BRL). The cells were maintained at 37° C. in a humidified atmosphere under 5% CO2 in air using standard cell culture techniques known to those of ordinary skill in the art.
The flow cytometry experiments were performed as follows. Once the samples were prepared and transferred into flow cytometric tubes, the samples were analyzed on a Becton/Dickinson Flow Cytometer. For antibodies that were PE conjugated and for the MitoTracker Red experiments, a program for red-colored fluorochromes was utilized. […] Statistical analysis, percents, and geometric mean values percents were calculated as described above.

L1210 DDP cells = experiment: % death of L1210 DDP cells by flow cytometry; assay type: cell-based; conditions: for L1210 DDP % Death: Table 2, 25 ug/mL Cerulenin
Experimental: as §2
as §3, with “above. For DNA staining, the cells were washed and resuspended in ice-cold PBS and fixed by the dropwise addition of 95% ethanol. The cells were then incubated for 30 minutes on ice, washed, and resuspended in PBS containing 1% formaldehyde and 0.01% Tween. The cells were incubated with 50 units of DNAse and washed with PBS containing 5% DNAse.” for “above.”
The flow cytometry experiments were performed as follows. Once the samples were prepared and transferred into flow cytometric tubes, the samples were analyzed on a Becton/Dickinson Flow Cytometer. […] Statistical analysis, percents, and geometric mean values percents were calculated as described above.

HL60 MDR cells [4] = experiment: microscopy images of HL60 MDR cells treated with cerulenin; assay type: cell-based, human; conditions: FIGS. 4E and 4F
From the text: as §1

B16F1 melanoma cells [5] = experiment: B16F1 melanoma cells exposed to cerulenin, then injected into male mice; assay type: in vivo
Experimental: Highly carcinogenic B16F1 melanoma cells were either exposed (“treated”) or not exposed to cerulenin, then injected into male mice.
Day 0 @2:45 pm injected with B16F1 10^6 cells in PBS, Treatment w/25 ug/ml cerulenin 5.0 hrs
Day 0 injected w/B16F1 10^6 cells in PBS, Treatment w/25 ug/ml cerulenin 5.0 h
Day 0 @2:45 pm injected w/B16F1 (10^6 cells in PBS) Treatment w/25 ug/ml cerulenin 5 h

HL60 MDR cells [6] = experiment: % death of HL60 MDR cells by flow cytometry; assay type: cell-based, human; conditions: for HL60 MDR % Death: Table 1, 25 ug/mL Cerulenin
Experimental: (§5) Dot plots as a function of live versus dead cells. The cells were cultured at a concentration of 0.5 to 1 million cells per ml. Cells were untreated or treated with etomoxir or 2-deoxy-D-glucose at a concentration of 2.5 mM at the indicated concentrations for either 24 or 48 hours. In additional experiments, under each of these culture conditions, the cells were cultured for 24 hours at which time point, polyclonal anti-UCP-2 was added at a 1:1000 dilution of stock provided by Alpha Diagnostics, San Antonio, Tex. Cells were harvested and analyzed by flow cytometry. Each dot on the dot plots of FIGS. 1, 3, 5, 7, 9, and 11 represents one cell. Five thousand cells were assessed for forward scatter (FS), as a function of cell size, versus side scatter (SS), as a function of cellular granularity. The upper ellipse represents live cells by these criterion and the lower ellipse in each dot plot represents the dead cells.
as §2, §4
All cell lines in this example were cultured in RPMI 1640 culture medium. The medium was supplemented with 5% fetal bovine serum (“FBS”), 2 mM L-Glutamine, 500 units/mL pennicillin/500 micrograms/mL of streptomycin, 10 mM HEPES Buffer, 10^−5 M 2-mercaptoethanol (“2-ME”), 1 mM MEM Sodium Pyruvate, and 0.04 micrograms/mL of Gentamicin (All reagents from Gibco BRL). The cells were maintained at 37° C. in a humidified atmosphere under 5% CO2 in air using standard cell culture techniques known to those of ordinary skill in the art. […]

L1210 cells = experiment: % death of L1210 cells by flow cytometry; assay type: cell-based; conditions: Table 2; 25 ug/mL Cerulenin; 7.0 Hours
Experimental: as §2, §3

[7] = tested on: RD cells (rhabdomyosarcoma cells); experiment: percent death of RD cells by flow cytometry; assay type: cell-based
Experimental: as §5, §2
Referring to FIGS. 29 and 30, RD cells (rhabdomyosarcoma cells—not drug resistant), cultured as described above under “Materials and Methods” were untreated or treated with etomoxir, with 2-deoxy-D-glucose, or with a combination of etomoxir and 2-deoxy-D-glucose, at concentrations indicated in FIG. 29 for 24 hours. Cells were harvested and analyzed by flow cytometry. […] The percent of cell deaths for RD cells after 24 hours was: (a) 31% when untreated, (b) 57% when treated with etomoxir alone, (c) 46% when treated with 2-deoxy-D-glucose alone, and (d) 66% when treated with the combination of etomoxir and 2-deoxy-D-glucose.
Referring to FIGS. 33 and 34, RD cells, cultured as described in Example 22, were untreated or treated with etomoxir, with 2-deoxy-D-glucose, or with a combination of etomoxir and 2-deoxy-D-glucose, at concentrations indicated in FIG. 33 for 48 hours. Cells were harvested and analyzed by flow cytometry. […] The percent of cell deaths for RD cells after 48 hours was: (a) 36% when untreated, (b) 64% when treated with etomoxir alone, (c) 63% when treated with 2-deoxy-D-glucose alone, and (d) 68% when treated with the combination of etomoxir and 2-deoxy-D-glucose.

HL60 MDR tumor = HL60 MDR tumor implanted in nude mice, tumor volume; assay type: in vivo
From the text: Tumor implantation. Mice were purchased from the Animal Production Program of National Cancer Institute, Frederick, Md. The animals used were Athymic Ncr-nu/nu (strain code 01B74). HL60 MDR cells were harvested and reconstituted at 1 million cells per 100 microliters of phosphate buffered saline. One million tumor cells per injection site were implanted subcutaneously on two sites of the animal's back. Treatments began at exactly seven days post tumor implantation. Tumor size/volume was monitored twice weekly using measurement calipers, with the formula Tumor Volume=π×(short diameter)^2×(long diameter)/6.
Mice experiments with fatty acid metabolism and glycolytic inhibitors. Fatty acid metabolism inhibitors were exemplified by etomoxir at 200 micrograms/day. Glycolytic inhibitors were exemplified by 2-deoxy-D-glucose at 2.5 mM in 100 microliters daily. The combination was administered daily, etomoxir at 200 micrograms and 2-deoxy-D-glucose at 2.5 mM in 100 microliters. All drugs were administered intra-peritoneally. 5-Fluoro-uracil, at 20 mg per kilogram mouse, was injected intra-peritoneally once a week
HL60 MDR human leukemia cells were cultured and implanted in nude mice as described above under “Materials and Methods”. The mice were given 200 ug of Etomoxir, 2.5 mM 2-Deoxy-D-glucose, or both 200 ug of Etomoxir and 2.5 mM 2-Deoxy-D-glucose given daily by IP injection. Treatment began exactly one week after tumor implantation.

Structure (SMILES): C/C=C/C/C=C/CCC(=O)[C@H]1O[C@H]1C(N)=O [Cerulenin, cerulenin]
- cell survival seen in microscopy images (HL60 cells [1]): large numbers of the cells survived
- HL60 % Death (HL60 cells [2]; 2.0 Hours): 11%
- HL60 % Death (HL60 cells [2]; 24 Hours): 44%
- B16F1 % Death (B16F1 melanoma cells [3]; Table 1; 25 ug/mL Cerulenin; 5.0 Hours): 61%
- B16F1 % Death (B16F1 melanoma cells [3]; Table 1; 25 ug/mL Cerulenin; 24 Hours): 90%
- B16F1 % Death (B16F1 melanoma cells [3]; Table 2; 25 ug/mL Cerulenin; 5.0 Hours): 67%
- B16F1 % Death (B16F1 melanoma cells [3]; Table 2; 25 ug/mL Cerulenin; 24 Hours): 72%
- B16F1 % Death (B16F1 melanoma cells [3]; Table 2; 24 Hours; 25 ug/mL Cerulenin): 89%
- cell death compared to control and non-multidrug resistant cancer cells (L1210 DDP cells; L1210 DDP, after treatment with cerulenin): greater amounts of cell death
- L1210 DDP % Death (L1210 DDP cells; 7.0 Hours): 14%
- L1210 DDP % Death (L1210 DDP cells; 24 Hours): 92%
- cell death seen in microscopy images (HL60 MDR cells [4]): large numbers of cell death
- development of lethal cancers (B16F1 melanoma cells [5]; male mice injected with B16F1 cells treated with 25 ug/ml cerulenin 5.0 hrs): did not develop lethal cancers
- tumor observation, Day 9 (B16F1 melanoma cells [5]; single mice (#7, #8, #9), 10^6 B16F1 cells treated w/25 ug/ml cerulenin 5.0 hrs, Day 9): no visible sign of tumors
- tumor observation, Day 12 (B16F1 melanoma cells [5]; single mice (#7, #8, #9), 10^6 B16F1 cells treated w/25 ug/ml cerulenin 5.0 hrs, Day 12): no visible tumors
- tumor observation, Day 13 (B16F1 melanoma cells [5]; single mice (#7, #8, #9), 10^6 B16F1 cells treated w/25 ug/ml cerulenin 5.0 hrs, Day 13): no visible tumors
- cell death compared to control and non-multidrug resistant cancer cells (HL60 MDR cells [6]; HL60 MDR, after treatment with cerulenin): greater amounts of cell death
- HL60 MDR % Death (HL60 MDR cells [6]; 2.0 Hours): 13%
- HL60 MDR % Death (HL60 MDR cells [6]; 24 Hours): 99.6%
- L1210 % Death (L1210 cells): 27%

Structure (SMILES): O=CC[C@@H](O)[C@H](O)[C@H](O)CO [2-deoxy-D-glucose]
- percent of cell deaths ([7]; 24 hours, concentrations as in FIG. 29): 46%
- percent of cell deaths ([7]; 48 hours, concentrations as in FIG. 33): 63%
- tumor growth versus control (HL60 MDR tumor; 21 day period, single agent): increase in tumor growth
- tumor volume, Day 7 (HL60 MDR tumor; Day 7 after implantation (start of treatment), 200 ug Etomoxir and/or 2.5 mM 2-Deoxy-D-glucose daily IP): 35 mm^3
- tumor volume, Day 9 (HL60 MDR tumor; Day 9, 200 ug Etomoxir and/or 2.5 mM 2-Deoxy-D-glucose daily IP): 51.56 mm^3
- tumor volume, Day 15 (HL60 MDR tumor; Day 15, 200 ug Etomoxir and/or 2.5 mM 2-Deoxy-D-glucose daily IP): 158.55 mm^3
- tumor volume, Day 21 (HL60 MDR tumor; Day 21, 200 ug Etomoxir and/or 2.5 mM 2-Deoxy-D-glucose daily IP): 1,181.61 mm^3
- percent of cell deaths (HL60 MDR cells [6]; HL60 MDR, 24 hours, 2-deoxy-D-glucose at 2.5 mM, etomoxir as in FIG. 27): 16%
- percent of cell deaths (HL60 MDR cells [6]; HL60 MDR, 48 hours, concentrations as in FIG. 31): 38%
